Data reported in patent US12291522B2, “Galectin-3 inhibitors” (BRISTOL-MYERS SQUIBB COMPANY, priority 2020, dated 2025).
Read-outs that look alike come from different tables or passages of the source.

Experiments:
[1] = target: T1, hCRBN (NanoLuc-CRBN fusion construct in HEK-293 cells) (Homo sapiens, UniProt Q96SW2); assay: CRBN BRET Target Engagement; type: cell-based; settings: NanoLuc-CRBN transfected HEK-293 cells, BRET with CRBN Probe
T1 construct: expressed in transfected cells; host or cells: HEK-293
T1 sequence (Q96SW2 whole entry, the tested form may be a part): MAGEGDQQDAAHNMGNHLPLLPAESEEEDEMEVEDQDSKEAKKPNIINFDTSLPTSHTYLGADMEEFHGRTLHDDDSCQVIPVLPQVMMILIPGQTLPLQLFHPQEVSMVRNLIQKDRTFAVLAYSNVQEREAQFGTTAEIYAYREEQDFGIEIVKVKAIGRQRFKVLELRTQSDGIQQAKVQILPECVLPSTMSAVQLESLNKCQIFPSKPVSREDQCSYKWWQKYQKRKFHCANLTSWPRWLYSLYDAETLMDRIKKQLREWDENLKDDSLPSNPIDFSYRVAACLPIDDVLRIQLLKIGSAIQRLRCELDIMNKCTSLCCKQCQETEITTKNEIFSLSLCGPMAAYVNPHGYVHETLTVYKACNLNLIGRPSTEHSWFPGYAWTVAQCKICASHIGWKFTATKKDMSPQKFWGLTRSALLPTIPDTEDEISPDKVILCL
Method: CRBN BRET Target Engagement (hCRBN IC50 (μM))
NanoLuc-CRBN fusion construct was transfected in HEK-293 cells using FuGENE HD (Promega) according to the manufacturer's protocol. In brief, Nluc-CRBN was diluted into Transfection Carrier DNA (Promega) 1:10 (mass/mass), to which FuGENE HD was 1:3 (μg DNA:μL FuGENE HD). One part (vol) of DNA:FuGENE HD complexes were combined with 20 parts (vol) of HEK-293 cells suspended at a density of […]. Cells were incubated for ˜20 hr at 37° C./5% CO2. Following transfection, cells were washed and resuspended at 200,000 cells/mL in OptiMEM without phenol red (Gibco).
For BRET measurements, cells were seeded in a 384-well nonbinding surface plate (Corning) plate for a final count of 10,000 cells/well. Compounds were dissolved at 10 mM in dimethylsulfoxide (DMSO) and evaluated at eleven concentrations using a high concentration of […]. CRBN Probe was used for equilibrium measurements, employing a final concentration of approximately EC50-80. For live-cell measurements, 20 nM of CRBN Probe was added. For the live-cell assay conditions, the plates were incubated for 2 hours at 37° C./5% CO2. NanoBRET NanoGlo Substrate and Extracellular Nanoluc Inhibitor (Promega) were added according to manufacturer's guidelines. For lytic cell measurements, digitonin was added to the cells to a final concentration of 50 μg/mL and 20 nM of CRBN Probe was added. To measure NanoBRET in permeabilized cells, extracellular Nluc inhibitor was omitted during the detection step. For all BRET experiments, the Envision 2015 (Perkin Elmer) equipped with a BRET2 Enh mirror, BRET 647 nM/75 nM Bandwidth and BC703 460 nM/80 nM Bandwidth filters was used for readouts. Each read was integrated for 0.5 s.
To determine compound potency (IC50), BRET ratios for each dilution series was first normalized to a % Inhibition value via Equation 1, where “S” represents Sample BRET, “B” represents Background BRET, and “T” represents Total BRET. In this equation, the background control (B) consists of NanoLuc-CRBN expressing cells and no CRBN Probe. The total BRET Ratio (T) consists of NanoLuc-CRBN expressing cells, CRBN Probe, and an amount of DMSO at a concentration equivalent to that added when testing compounds.
Following normalization, the percent inhibition values are plotted as a function of compound concentration and fit to Equation 2. […]

[2] = target: T2, Gal3 (Human Galectin-3) in THP-1 cells (Homo sapiens, UniProt P17931); assay: ELISA Gal3 Degradation Assay in THP-1 Cells; type: cell-based; settings: 48 hours, culture media Gal3 by ELISA
T2 construct: host or cells: THP-1
T2 sequence (P17931 whole entry): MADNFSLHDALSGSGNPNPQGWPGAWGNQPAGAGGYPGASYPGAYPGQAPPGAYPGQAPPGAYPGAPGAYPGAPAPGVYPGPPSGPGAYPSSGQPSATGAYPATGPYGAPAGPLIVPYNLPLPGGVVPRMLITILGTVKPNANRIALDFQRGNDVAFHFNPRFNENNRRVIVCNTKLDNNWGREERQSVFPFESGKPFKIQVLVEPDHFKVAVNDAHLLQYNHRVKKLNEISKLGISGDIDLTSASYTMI
Method: [formula] ELISA Gal3 Degradation Assay in THP-1 Cells
THP-1 cells (ATCC, Cat #TIB-202), a human monocyte cell line derived from leukemia were plated at 2E6 cells/mL in 200 uL/well of RPMI 1640 (ThermoFisher, Cat #11835) in 96-well plates. Cells were treated with DMSO as a control and various concentrations of compounds for 48 hours. After the treatment, the culture media were collected. The PBS washed cell pellets were lysed in Lysis Buffer (Cell Signaling, Cat #9803) supplemented with 1XProtease Inhibitor Cocktail (Cell Signaling, Cat #5872). Gal3 levels in culture media and cell lysates were quantified by ELISA assays (Human Galectin-3 DuoSet ELISA kit, R&D Systems, Cat #DY1154) according to manufacturer's instructions. The cell culture media were also used for the assessment of cellular toxicity (LDH Assay kit, R&D Systems, DY994). The IC50 (degradation concentration at 50%) values were calculated based on the cellular Gal3 protein levels using DMSO as the control.

[3] = target: His-tagged recombinant human Gal-3 (hGal-3) (Homo sapiens, UniProt P17931); assay: Gal-3 HTRF assay (His-tagged hGal-3 / B-ASF); type: binding; settings: 15 nM hGal-3, 15 nM B-ASF
His-tagged recombinant human Gal-3 (hGal-3), sequence (P17931 whole entry): as above
Method: ASSAY BUFFER Composition: 25 mM HEPES, 100 mM NaCl, 0.005% Tween 20, 0.05% BSA prepared in sterile water (all reagents from Sigma).
• Positive Control: 100% DMSO (1 μL)+His-tagged hGal-3 (20 μL)+B-ASF (20 μL)+Anti-His Terbium Antibody (5 μL)+Strep d2 Antibody (5 μL). • Negative Control: 100% DMSO (1 μL)+His-tagged hGal-3 (20 μL)+Anti His Terbium Antibody (5 μL)+Strep d2 Aantibody (5 μL). Stocks Preparation:
PROTOCOL: The Gal-3 assays were performed in 384 white Opti plates in three replicates at room temperature with gentle shaking at 250-300 rpmFrom the original stocks, […] working stock concentrations of His-tagged recombinant human Gal-3 (hGal-3) and that of B-ASF were prepared. From the working stock, 20 μL of hGal-3 (15 nM) and 20 μL B-ASF (15 nM) were added to the plates. In Negative Control, only hGal-3 was added. A concentration range of 50× working stocks were prepared for the compounds in 100% DMSO. Aliquots of luL of the compounds were added to the wells and pre-incubated with 20 μL hGal-3 per well for 30 minutes Then 20 μL B-ASF wereadded and incubated for another 1 hour. To detect the signal, 5 μL (final conc. of 1.0 nM) terbium labelled Anti-His antibody was added and incubated for 30 min followed by adding 5 μL (final conc. of 20 nM) Streptavidin d2 and incubation for another 1 hour. The assay signal was detected using HTRF screen protocol (Excitation wavelength=340 nm, emission wavelength=615 nm/665 nm) on Envision 2104 Multilabel Reader. Data analysed using Toolset and Curve Master. Results are reported in the experimental section (IC50 in μM).

[4] = test 1, read-out: Supernatant (IC50) test 1
[5] = test 2, read-out: Supernatant (IC50) test 2

| IC50 [1] [nM] | IC50 [3] [nM] | SMILES | IC50 [2, 4] [nM] | IC50 [2, 5] [nM] |
| --- | --- | --- | --- | --- |
| 1420 | 48 | Cc1nc([C@@H]2O[C@H](CO)[C@H](O)[C@H](n3cc(-c4cc(F)c(Cl)c(F)c4)nn3)[C@H]2OCC(=O)N2CC(Oc3ccc(C(=O)Nc4ccc5c(c4)CN(C4CCC(=O)NC4=O)C5=O)cc3)C2)n(-c2cc(Cl)ccc2C(F)(F)F)n1 (stereo partly drawn) [Example 8, 4-((1-(2-(((2S,3R,4S,5R,6R)-2-(1-(5-Chloro-2-(trifluoromethyl)phenyl)-3-methyl-1H-1,2,4-triazol-5-yl)-4-(4-(4-chloro-3,5-difluorophenyl)-1H-1,2,3-triazol-1-yl)-5-hydroxy-6-(hydroxymethyl)tetrahydro-2H-pyran-3-yl)oxy)acetyl)azetidin-3-yl)oxy)-N-(2-(2,6-dioxopiperidin-3-yl)-1-oxoisoindolin-5-yl)benzamide] | 281 | 38 |
| 17 | 51 | Cc1nc([C@@H]2O[C@H](CO)[C@H](O)[C@H](n3cc(-c4cc(F)c(Cl)c(F)c4)nn3)[C@H]2OCC(=O)N2Cc3ccc(C(=O)Nc4ccc5c(c4)CN(C4CCC(=O)NC4=O)C5=O)cc3C2)n(-c2cc(Cl)ccc2C(F)(F)F)n1 (stereo partly shown) [Example 19] | – | – |
| 10400 | 98 | Cc1nc([C@@H]2O[C@H](CO)[C@H](O)[C@H](n3cc(-c4cc(F)c(Cl)c(F)c4)nn3)[C@H]2OCC(=O)N2CC(Oc3ccc(C(=O)Nc4ccc5c(c4)CN(C4CCC(=O)N(C)C4=O)C5=O)cc3)C2)n(-c2cc(Cl)ccc2C(F)(F)F)n1 (stereo partly shown) [Example 28] | – | – |
| 350 | 160 | Cc1nc([C@@H]2O[C@H](CO)[C@H](O)[C@H](n3cc(-c4cc(F)c(Cl)c(F)c4)nn3)[C@H]2OCC(=O)N2CC3(CC(COc4ccc(C(=O)Nc5ccc6c(c5)CN(C5CCC(=O)NC5=O)C6=O)cc4)C3)C2)n(-c2cc(Cl)ccc2C(F)(F)F)n1 (stereo partly shown) [Example 29] | – | – |

The next lines start with the compound.

| SMILES | IC50 [1] [nM] | IC50 [3] [nM] | IC50 [2, 4] [nM] | IC50 [2, 5] [nM] |
| --- | --- | --- | --- | --- |
| Cc1nc([C@@H]2O[C@H](CO)[C@H](O)[C@H](n3cc(-c4cc(F)c(Cl)c(F)c4)nn3)[C@H]2OCC(=O)N[C@H]2C[C@@H](Oc3ccc(C(=O)Nc4ccc5c(c4)CN(C4CCC(=O)NC4=O)C5=O)cc3)C2)n(-c2cc(Cl)ccc2C(F)(F)F)n1 (stereo partly drawn) [Example 3, 4-(cis-3-(2-(((2S,3R,4S,5R,6R)-2-(1-(5-Chloro-2-(trifluoromethyl)phenyl)-3-methyl-1H-1,2,4-triazol-5-yl)-4-(4-(4-chloro-3,5-difluorophenyl)-1H-1,2,3-triazol-1-yl)-5-hydroxy-6-(hydroxymethyl)tetrahydro-2H-pyran-3-yl)oxy)acetamido)cyclobutoxy)-N-(2-(2,6-dioxopiperidin-3-yl)-1-oxoisoindolin-5-yl)benzamide] | 126 | 70 | < 10 | 48 |
| Cc1nc([C@@H]2O[C@H](CO)[C@H](O)[C@H](n3cc(-c4cc(F)c(Cl)c(F)c4)nn3)[C@H]2OCC(=O)N[C@H]2C[C@@H](Oc3ccc(C(=O)Nc4ccc5c(c4)CN(C4CCC(=O)NC4=O)C5=O)nc3)C2)n(-c2cc(Cl)ccc2C(F)(F)F)n1 (stereo partly drawn) [Example 4, 5-(cis-3-(2-(((2S,3R,4S,5R,6R)-2-(1-(5-Chloro-2-(trifluoromethyl)phenyl)-3-methyl-1H-1,2,4-triazol-5-yl)-4-(4-(4-chloro-3,5-difluorophenyl)-1H-1,2,3-triazol-1-yl)-5-hydroxy-6-(hydroxymethyl)tetrahydro-2H-pyran-3-yl)oxy)acetamido)cyclobutoxy)-N-(2-(2,6-dioxopiperidin-3-yl)-1-oxoisoindolin-5-yl)picolinamide] | 174 | 81 | 68 | 96 |
| Cc1nc([C@@H]2O[C@H](CO)[C@H](O)[C@H](n3cc(-c4cc(F)c(Cl)c(F)c4)nn3)[C@H]2OCC(=O)N[C@H]2C[C@@H](Oc3ccc(C(=O)Nc4ccc5c(c4)CN([C@H]4CCC(=O)NC4=O)C5=O)nc3)C2)n(-c2cc(Cl)ccc2C(F)(F)F)n1 [Example 5, 5-(cis-3-(2-(((2S,3R,4S,5R,6R)-2-(1-(5-chloro-2-(trifluoromethyl)phenyl)-3-methyl-1H-1,2,4-triazol-5-yl)-4-(4-(4-chloro-3,5-difluorophenyl)-1H-1,2,3-triazol-1-yl)-5-hydroxy-6-(hydroxymethyl)tetrahydro-2H-pyran-3-yl)oxy)acetamido)cyclobutoxy)-N-(2-((S)-2,6-dioxopiperidin-3-yl)-1-oxoisoindolin-5-yl)picolinamide] | 39 | 84 | < 10 | < 10 |
| Cc1nc([C@@H]2O[C@H](CO)[C@H](O)[C@H](n3cc(-c4cc(F)c(Cl)c(F)c4)nn3)[C@H]2OCC(=O)N[C@H]2C[C@@H](Oc3ccc(C(=O)Nc4ccc5c(c4)CN([C@@H]4CCC(=O)NC4=O)C5=O)nc3)C2)n(-c2cc(Cl)ccc2C(F)(F)F)n1 [Example 6, 5-(cis-3-(2-(((2S,3R,4S,5R,6R)-2-(1-(5-chloro-2-(trifluoromethyl)phenyl)-3-methyl-1H-1,2,4-triazol-5-yl)-4-(4-(4-chloro-3,5-difluorophenyl)-1H-1,2,3-triazol-1-yl)-5-hydroxy-6-(hydroxymethyl)tetrahydro-2H-pyran-3-yl)oxy)acetamido)cyclobutoxy)-N-(2-((R)-2,6-dioxopiperidin-3-yl)-1-oxoisoindolin-5-yl)picolinamide] | > 50000 | 74 | 39 | 15 |
| Cc1nc([C@@H]2O[C@H](CO)[C@H](O)[C@H](n3cc(-c4cc(F)c(Cl)c(F)c4)nn3)[C@H]2OCC(=O)N(CCl)CCCOc2ccc(C(=O)Nc3ccc4c(c3)CN(C3CCC(=O)NC3=O)C4=O)cc2)n(-c2cc(Cl)ccc2C(F)(F)F)n1 (stereo partly shown) [Example 24] | 2160 | 212 | – | – |
